Results taken from the supplement of paper PMC10307832.

How the values were obtained:
Assay in all cases: relative viability (nuclei count vs DMSO), 5 days (fraction); higher = more cells survive
NCI-H647 = tested on: NCI-H647
Outline: (§1)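 Medians of duplicate plates are given as relative viability. That measure is the nuclei count in treated wells divided by the count in vehicle wells. Counts were taken on 4× images of lung cancer cell lines in 1536-well plates, 5 days after pin-tool dosing the day after seeding with one drug alone or a fixed anchor-drug dose plus five library-drug doses (not always all listed) in √10 steps.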

NCI-H358 = tested on: NCI-H358
Outline: as §1

NCI-H2347 = tested on: NCI-H2347
Outline: as §1

SW 1573 = tested on: SW 1573
Outline: as §1

HCC-15 = tested on: HCC-15
Outline: as §1

NCI-H460 = tested on: NCI-H460
Outline: as §1

NCI-H1755 = tested on: NCI-H1755
Outline: as §1

NCI-H2126 = tested on: NCI-H2126
Outline: as §1

NCI-H2342 = tested on: NCI-H2342
Outline: as §1

A-427 = tested on: A-427
Outline: as §1

HOP-62 = tested on: HOP-62
Outline: as §1

NCI-H2228 = tested on: NCI-H2228
Outline: as §1

LXF-289 = tested on: LXF-289
Outline: as §1

NCI-H522 = tested on: NCI-H522
Outline: as §1

NCI-H1792 = tested on: NCI-H1792
Outline: as §1

LC-2-ad = tested on: LC-2-ad
Outline: as §1

RERF-LC-KJ = tested on: RERF-LC-KJ
Outline: as §1

NCI-H1975 = tested on: NCI-H1975
Outline: as §1

PC-3 [JPC-3] = tested on: PC-3 [JPC-3]
Outline: as §1

NCI-H1915 = tested on: NCI-H1915
Outline: as §1

SK-LU-1 = tested on: SK-LU-1
Outline: as §1

NCI-H1734 = tested on: NCI-H1734
Outline: as §1

LOU-NH91 = tested on: LOU-NH91
Outline: as §1

HCC-78 = tested on: HCC-78
Outline: as §1

Work on `COc1cc(N2CCC(C(N)=O)CC2)ccc1Nc1nc(N)c(Cl)c(Nc2ccccc2S(=O)(=O)C(C)C)n1` [HG-5-88-01] + COc1cccc2cc(-c3nc([C@H]4CC[C@H](C(=O)O)CC4)n4ncnc(N)c34)[nH]c12 [OSI-027] (partner 0.5 µM) yielded a relative viability (NCI-H647; first compound 0.04 µM) of 0.622, a relative viability (NCI-H647; first compound 0.1265 µM) of 0.63 and a relative viability (NCI-H647; first compound 0.4 µM) of 0.613. It also gave a relative viability (NCI-H647; first compound 1.265 µM) of 0.566, a relative viability (NCI-H647; first compound 4 µM) of 0.648 and a relative viability (NCI-H358; first compound 0.04 µM) of 0.692. The relative viability (NCI-H358; first compound 0.1265 µM) was 0.673, the relative viability (NCI-H358; first compound 0.4 µM) was 0.588 and the relative viability (NCI-H358; first compound 1.265 µM) was 0.234. The relative viability (NCI-H358; first compound 4 µM) was 0.133, the relative viability (NCI-H2347; first compound 0.04 µM) was 0.363 and the relative viability (NCI-H2347; first compound 0.1265 µM) was 0.448. It also gave a relative viability (NCI-H2347; first compound 0.4 µM) of 0.388, a relative viability (NCI-H2347; first compound 1.265 µM) of 0.25 and a relative viability (NCI-H2347; first compound 4 µM) of 0.274. It also gave a relative viability (SW 1573; first compound 0.04 µM) of 0.624, a relative viability (SW 1573; first compound 0.1265 µM) of 0.609 and a relative viability (SW 1573; first compound 0.4 µM) of 0.359. The relative viability (SW 1573; first compound 1.265 µM) was 0.306, the relative viability (SW 1573; first compound 4 µM) was 0.375 and the relative viability (HCC-15; first compound 0.04 µM) was 0.683. It also gave a relative viability (HCC-15; first compound 0.1265 µM) of 0.8, a relative viability (HCC-15; first compound 0.4 µM) of 0.539 and a relative viability (HCC-15; first compound 1.265 µM) of 0.547. The relative viability (HCC-15; first compound 4 µM) was 0.326, the relative viability (NCI-H460; first compound 0.04 µM) was 0.604 and the relative viability (NCI-H460; first compound 0.1265 µM) was 0.655. For the same compound, the relative viability (NCI-H460; first compound 0.4 µM) was 0.543, the relative viability (NCI-H460; first compound 1.265 µM) was 0.344 and the relative viability (NCI-H460; first compound 4 µM) was 0.287. For the same compound, the relative viability (NCI-H1755; first compound 0.04 µM) was 0.722, the relative viability (NCI-H1755; first compound 0.1265 µM) was 0.731 and the relative viability (NCI-H1755; first compound 0.4 µM) was 0.677. For the same compound, the relative viability (NCI-H1755; first compound 1.265 µM) was 0.686, the relative viability (NCI-H1755; first compound 4 µM) was 0.434 and the relative viability (NCI-H2126; first compound 0.1265 µM) was 0.688. The relative viability (NCI-H2126; first compound 0.4 µM) was 0.71, the relative viability (NCI-H2126; first compound 1.265 µM) was 0.518 and the relative viability (NCI-H2126; first compound 4 µM) was 0.432. For the same compound, the relative viability (NCI-H2342; first compound 0.04 µM) was 0.607, the relative viability (NCI-H2342; first compound 0.1265 µM) was 0.527 and the relative viability (NCI-H2342; first compound 0.4 µM) was 0.611. For the same compound, the relative viability (NCI-H2342; first compound 1.265 µM) was 0.485, the relative viability (NCI-H2342; first compound 4 µM) was 0.563 and the relative viability (A-427; first compound 0.04 µM) was 0.441. For the same compound, the relative viability (A-427; first compound 0.1265 µM) was 0.533, the relative viability (A-427; first compound 0.4 µM) was 0.524 and the relative viability (A-427; first compound 1.265 µM) was 0.416. It also gave a relative viability (A-427; first compound 4 µM) of 0.283, a relative viability (HOP-62; first compound 0.04 µM) of 0.726 and a relative viability (HOP-62; first compound 0.1265 µM) of 0.949. For the same compound, the relative viability (HOP-62; first compound 0.4 µM) was 0.828, the relative viability (HOP-62; first compound 1.265 µM) was 0.856 and the relative viability (HOP-62; first compound 4 µM) was 0.737. For the same compound, the relative viability (NCI-H2228; first compound 0.04 µM) was 0.241, the relative viability (NCI-H2228; first compound 0.1265 µM) was 0.148 and the relative viability (NCI-H2228; first compound 0.4 µM) was 0.181. The relative viability (NCI-H2228; first compound 1.265 µM) was 0.169, the relative viability (NCI-H2228; first compound 4 µM) was 0.172 and the relative viability (LXF-289; first compound 0.04 µM) was 0.755. For the same compound, the relative viability (LXF-289; first compound 0.1265 µM) was 0.815, the relative viability (LXF-289; first compound 0.4 µM) was 0.77 and the relative viability (LXF-289; first compound 1.265 µM) was 0.635. The relative viability (LXF-289; first compound 4 µM) was 0.337, the relative viability (NCI-H522; first compound 0.04 µM) was 0.641 and the relative viability (NCI-H522; first compound 0.1265 µM) was 0.634. It also gave a relative viability (NCI-H522; first compound 0.4 µM) of 0.66, a relative viability (NCI-H522; first compound 1.265 µM) of 0.579 and a relative viability (NCI-H522; first compound 4 µM) of 0.61. It also gave a relative viability (NCI-H1792; first compound 0.04 µM) of 0.809, a relative viability (NCI-H1792; first compound 0.1265 µM) of 0.823 and a relative viability (NCI-H1792; first compound 0.4 µM) of 0.794. For the same compound, the relative viability (NCI-H1792; first compound 4 µM) was 0.574, the relative viability (LC-2-ad; first compound 0.04 µM) was 0.819 and the relative viability (LC-2-ad; first compound 0.1265 µM) was 0.944. It also gave a relative viability (LC-2-ad; first compound 0.4 µM) of 0.826, a relative viability (LC-2-ad; first compound 1.265 µM) of 0.558 and a relative viability (LC-2-ad; first compound 4 µM) of 0.416. The relative viability (RERF-LC-KJ; first compound 0.04 µM) was 0.637, the relative viability (RERF-LC-KJ; first compound 0.1265 µM) was 0.54 and the relative viability (RERF-LC-KJ; first compound 0.4 µM) was 0.506. It also gave a relative viability (RERF-LC-KJ; first compound 1.265 µM) of 0.345, a relative viability (RERF-LC-KJ; first compound 4 µM) of 0.308 and a relative viability (NCI-H1975; first compound 0.04 µM) of 0.711. The relative viability (NCI-H1975; first compound 0.1265 µM) was 0.803, the relative viability (NCI-H1975; first compound 0.4 µM) was 0.631 and the relative viability (NCI-H1975; first compound 1.265 µM) was 0.461. For the same compound, the relative viability (NCI-H1975; first compound 4 µM) was 0.19, the relative viability (PC-3 [JPC-3]; first compound 0.04 µM) was 0.701 and the relative viability (PC-3 [JPC-3]; first compound 0.1265 µM) was 0.759. The relative viability (PC-3 [JPC-3]; first compound 0.4 µM) was 0.721, the relative viability (PC-3 [JPC-3]; first compound 1.265 µM) was 0.543 and the relative viability (PC-3 [JPC-3]; first compound 4 µM) was 0.577. For the same compound, the relative viability (NCI-H1915; first compound 0.04 µM) was 0.63, the relative viability (NCI-H1915; first compound 0.1265 µM) was 0.625 and the relative viability (NCI-H1915; first compound 0.4 µM) was 0.69. It also gave a relative viability (NCI-H1915; first compound 1.265 µM) of 0.697, a relative viability (NCI-H1915; first compound 4 µM) of 0.527 and a relative viability (SK-LU-1; first compound 0.04 µM) of 0.292. The relative viability (SK-LU-1; first compound 0.1265 µM) was 0.34, the relative viability (SK-LU-1; first compound 0.4 µM) was 0.278 and the relative viability (SK-LU-1; first compound 1.265 µM) was 0.235. For the same compound, the relative viability (SK-LU-1; first compound 4 µM) was 0.174, the relative viability (NCI-H1734; first compound 0.04 µM) was 0.59 and the relative viability (NCI-H1734; first compound 0.1265 µM) was 0.615. The relative viability (NCI-H1734; first compound 0.4 µM) was 0.394, the relative viability (NCI-H1734; first compound 1.265 µM) was 0.399 and the relative viability (NCI-H1734; first compound 4 µM) was 0.386. It also gave a relative viability (LOU-NH91; first compound 0.04 µM) of 0.602, a relative viability (LOU-NH91; first compound 0.1265 µM) of 0.635 and a relative viability (LOU-NH91; first compound 0.4 µM) of 0.615. The relative viability (LOU-NH91; first compound 1.265 µM) was 0.442, the relative viability (LOU-NH91; first compound 4 µM) was 0.451 and the relative viability (HCC-78; first compound 0.04 µM) was 0.359. For the same compound, the relative viability (HCC-78; first compound 0.1265 µM) was 0.293, the relative viability (HCC-78; first compound 0.4 µM) was 0.349 and the relative viability (HCC-78; first compound 1.265 µM) was 0.27. For the same compound, the relative viability (HCC-78; first compound 4 µM) was 0.301.
